The test system of the test is CRE-BLA reporter cells, beta-lactamase FRET, counterscreen. The test is described as follows: CRE beta-lactamase reporter activation by analogues – cell-based, purchased analogues, beta-lactamase FRET, counter-screen for S1P2 agonist project, SAR follow-up (AID 874). In general terms: Counterscreens check selectivity or assay interference.

The source made the active and inactive calls. How the calls were made is not given here.

For orientation: EC50 means the concentration giving half of the maximal effect. Regarding `Cc1cc(C(=O)CN2C(=O)C(=O)N(Cc3ccco3)C2=O)c(C)n1Cc1ccccc1`, the EC50 was > 44 µM (inactive).

With `CCOC(=O)c1cc(C)n(Cc2ccccc2)c1C`, the EC50 is > 44 µM (inactive).

Regarding `CCC1(CC)NC(=O)N(CC(=O)OCC(=O)c2cc(C)n(Cc3ccccc3)c2C)C1=O`, the EC50 is > 44 µM (inactive).

Regarding `Cc1cc(C(=O)Cn2cnc3c2c(=O)n(C)c(=O)n3C)c(C)n1Cc1ccccc1`, the EC50 was > 44 µM (inactive).

For the compound `Cc1cc(C(=O)COC(=O)CN2C(=O)C3CCCCC3C2=O)c(C)n1Cc1ccccc1` (centres undefined), the EC50 was > 44 µM (inactive).

For the compound `Cc1cc(C(=O)CSc2ncn[nH]2)c(C)n1Cc1ccccc1`, the EC50 is > 44 µM (inactive).

Consider `Cc1cc(C(=O)CN2C(=O)CCC2=O)c(C)n1Cc1ccc2c(c1)OCO2`, for which the EC50 was > 44 µM (inactive).

For the compound `Cc1cc(C(=O)CSc2nnc(C3CC3)n2C)c(C)n1Cc1ccccc1`, the EC50 was > 44 µM (inactive).

In the case of `Cc1cc(C(=O)O)c(C)n1Cc1ccccc1`, the EC50 was > 44 µM (inactive).

On to `CC(=O)c1cccc(OCC(=O)c2cc(C)n(Cc3ccccc3)c2C)c1`, for which the EC50 was > 44 µM (inactive).

Consider `Cc1cc(C(=O)CN2C(=O)NC3(CCc4ccccc43)C2=O)c(C)n1Cc1ccccc1` (centres undefined), for which the EC50 is > 44 µM (inactive).

On to `Cc1cc(C(=O)COC(=O)CCS(=O)(=O)c2ccccc2)c(C)n1Cc1ccccc1`, for which the EC50 was > 44 µM (inactive).

Take `Cc1cc(C(=O)COC(=O)C2CSC3(C)CCC(=O)N23)c(C)n1Cc1ccccc1` (centres undefined): the EC50 is > 44 µM (inactive).

For `Cc1cc(C(=O)CN(C)CC(=O)N2CCCC2)c(C)n1Cc1ccccc1`, the EC50 was > 44 µM (inactive).

As to `CCCNC(=O)CN(C)CC(=O)c1cc(C)n(Cc2ccccc2)c1C`, the EC50 was > 44 µM (inactive).

Consider `CCNC(=O)CN(CC)CC(=O)c1cc(C)n(Cc2ccccc2)c1C`, for which the EC50 is > 44 µM (inactive).

Turning to `COCCNC(=O)CN(C)CC(=O)c1cc(C)n(Cc2ccccc2)c1C`, the EC50 is > 44 µM (inactive).

Regarding `CC(=O)Nc1ccc(OCC(=O)c2cc(C)n(Cc3ccccc3)c2C)cc1`, the EC50 was > 44 µM (inactive).

`Cc1cc(C(=O)CN2C(=O)C(=O)N(Cc3ccccc3)C2=O)c(C)n1Cc1ccccc1`: the EC50 is > 44 µM (inactive).

Take `Cc1cc(C(=O)CN2C(=O)CCC2=O)c(C)n1Cc1ccccc1`: the EC50 is > 44 µM (inactive).

As for `Cc1cc(C(=O)COC(=O)C(O)c2ccccc2)c(C)n1Cc1ccccc1` (centres undefined), the EC50 is > 44 µM (inactive).

Take `Cc1cc(C(=O)CN(C)CC(=O)N(C)C)c(C)n1Cc1ccccc1`: the EC50 was > 44 µM (inactive).

For the compound `Cc1cc(C(=O)COC(=O)Cn2c(=O)oc3ccccc32)c(C)n1Cc1ccccc1`, the EC50 was > 44 µM (inactive).

On to `Cc1cc(C(=O)COc2ccc(C(N)=O)cc2)c(C)n1Cc1ccccc1`, for which the EC50 was > 44 µM (inactive).

With `CC(=O)c1ccc(OCC(=O)c2cc(C)n(Cc3ccccc3)c2C)cc1`, the EC50 was > 44 µM (inactive).

Turning to `Cc1cc(C(=O)COC(=O)c2ccco2)c(C)n1Cc1ccccc1`, the EC50 is > 44 µM (inactive).

For the compound `Cc1cc(C(=O)CN(C)Cc2ccco2)c(C)n1Cc1ccccc1`, the EC50 is > 44 µM (inactive).

With `Cc1cc(C)nc(SCC(=O)OCC(=O)c2cc(C)n(Cc3ccccc3)c2C)n1`, the EC50 is > 44 µM (inactive).

For the compound `Cc1cc(C(=O)CSc2nnnn2C)c(C)n1Cc1ccccc1`, the EC50 was > 44 µM (inactive).

Take `CC(=O)Nc1ccc(SCC(=O)c2cc(C)n(Cc3ccccc3)c2C)cc1`: the EC50 was > 44 µM (inactive).

On to `CNC(=O)c1ccc(CN(C)CC(=O)c2cc(C)n(Cc3ccccc3)c2C)cc1`, for which the EC50 was > 44 µM (inactive).

As for `Cc1ccc(C(=O)OCC(=O)c2cc(C)n(Cc3ccccc3)c2C)o1`, the EC50 was > 44 µM (inactive).

Turning to `Cc1cc(C(=O)CSc2nnnn2C2CC2)c(C)n1Cc1ccccc1`, the EC50 was > 44 µM (inactive).

Regarding `Cc1cc(C(=O)CN(C)CC(=O)NC(C)(C)C)c(C)n1Cc1ccccc1`, the EC50 is > 44 µM (inactive).

`COc1cccc(C2(C)NC(=O)N(CC(=O)c3cc(C)n(Cc4ccccc4)c3C)C2=O)c1` (centres undefined): the EC50 is > 44 µM (inactive).

Consider `Cc1cc(C(=O)CN2C(=O)NC3(CCOc4ccccc43)C2=O)c(C)n1Cc1ccccc1` (centres undefined), for which the EC50 is > 44 µM (inactive).

Turning to `Cc1cc(C(=O)CN2C(=O)C(=O)N(C3CCCC3)C2=O)c(C)n1Cc1ccccc1`, the EC50 was > 44 µM (inactive).

Take `Cc1cc(C(=O)COC(=O)CN2C(=O)NC(C)(C)C2=O)c(C)n1Cc1ccccc1`: the EC50 was > 44 µM (inactive).

With `Cc1cc(C(=O)Cn2cc(C(F)(F)F)ccc2=O)c(C)n1Cc1ccccc1`, the EC50 is > 44 µM (inactive).

For `Cc1nn(CC(=O)c2cc(C)n(Cc3ccccc3)c2C)c(C)c1[N+](=O)[O-]`, the EC50 is > 44 µM (inactive).

As to `Cc1cc(C(=O)COC(=O)Cn2cnc3ccccc3c2=O)c(C)n1Cc1ccccc1`, the EC50 is > 44 µM (inactive).

For `Cc1cc(C(=O)CN2C(=O)C(=O)N(Cc3ccccc3)C2=O)c(C)n1Cc1ccco1`, the EC50 was > 44 µM (inactive).

`COc1ccc(C(N)=O)c(OCC(=O)c2cc(C)n(Cc3ccccc3)c2C)c1`: the EC50 was > 44 µM (inactive).

Regarding `Cc1noc(C)c1C(=O)OCC(=O)c1cc(C)n(Cc2ccccc2)c1C`, the EC50 was > 44 µM (inactive).

As for `Cc1cc(C(=O)CSc2ncccn2)c(C)n1Cc1ccccc1`, the EC50 is > 44 µM (inactive).

In the case of `Cc1cc(C(=O)CN2C(=O)NC(Cc3ccccc3)C2=O)c(C)n1Cc1ccccc1` (centres undefined), the EC50 was > 44 µM (inactive).

As to `Cc1cc(C(=O)CN2CCN(C(=O)c3ccco3)CC2)c(C)n1Cc1ccccc1`, the EC50 is > 44 µM (inactive).

Take `Cc1cc(C(=O)CN2C(=O)C(=O)N(Cc3ccccc3)C2=O)c(C)n1Cc1ccc(F)cc1`: the EC50 was > 44 µM (inactive).

As for `Cc1cc(C(=O)CN(C)CC(=O)NC(C)C)c(C)n1Cc1ccccc1`, the EC50 is > 44 µM (inactive).

As for `Cc1cc(C(=O)CN(C)CC(=O)N2CCOCC2)c(C)n1Cc1ccccc1`, the EC50 was > 44 µM (inactive).

As for `Cc1cc(C(=O)COC(=O)C2CCC2)c(C)n1Cc1ccccc1`, the EC50 was > 44 µM (inactive).

With `Cc1cc(C(=O)Cn2cnc3c(oc4ccccc43)c2=O)c(C)n1Cc1ccccc1`, the EC50 was > 44 µM (inactive).

With `Cc1cc(C(=O)CSc2nnnn2C(C)(C)C)c(C)n1Cc1ccccc1`, the EC50 was > 44 µM (inactive).

For `Cc1cc(C(=O)CN(C)CC(=O)NC2CC2)c(C)n1Cc1ccccc1`, the EC50 was > 44 µM (inactive).

In the case of `Cc1cc(C(=O)CN2C(=O)NC(Cc3ccccc3)C2=O)c(C)n1Cc1cccs1` (centres undefined), the EC50 is > 44 µM (inactive).

As for `COc1ccc(NC(=O)CN(C)CC(=O)c2cc(C)n(Cc3ccccc3)c2C)cc1`, the EC50 was > 44 µM (inactive).

Consider `Cc1nc(C)c(C(=O)OCC(=O)c2cc(C)n(Cc3ccccc3)c2C)s1`, for which the EC50 was > 44 µM (inactive).

Take `Cc1cc(C(=O)CN2C(=O)C(=O)N(C)C2=O)c(C)n1Cc1ccccc1`: the EC50 is > 44 µM (inactive).

Consider `Cc1sc2ncn(CC(=O)c3cc(C)n(Cc4ccccc4)c3C)c(=O)c2c1C`, for which the EC50 was > 44 µM (inactive).

Values taken from PubChem BioAssay AID874 (The Scripps Research Institute Molecular Screening Center, 2007).
